This is an account of results in patent publication US7579353B2, “Pyridinone derivatives against malaria” (Glaxo Group Limited, priority 2005, dated 2009).

Data set [1] can be described thus: Compound solubility determination (gross and equilibrium solubility; FaSSIF, FeSSIF, pH 7.4 PBS, pH 1.0 0.1N HCl, pH 4.5 sodium citrate). The format is physicochemical. As to conditions: thermodynamic from solid. The protocol:
Compound Solubility Determination
An amount of 3 mg solid compound with LC-MS purity ≧95% was required. This amount was split between 3 different glass vials (1.8 ml volume each), placing 1 mg compound into each one.
Organic solvents of HPLC grade were used. Ultra pure water (Milli-Q grade) was used. Buffers were prepared with ultra pure water and filtered using 0.45μ cameo filters. The compositions of each solvent employed in this assay are described below (part III).
2. Determination of Equilibrium Solubility (Assuming Chemical Stability in the Desired Solvent is not a Problem).
For each of the three vial samples prepared as described above, in which the amount of compound was totally dissolved, the following procedure was subsequently carried out: • a) A small amount (approx. 0.1 mg) of additional solid compound was added to the vial to maintain an excess of the compound in the mixture in the form of undissolved solid. • b) The samples were magnetically stirred for 24 hr. If required, additional solid compound (0.1 mg) was added to maintain excess of it and then the samples were stirred again. • c) Then the samples were filtered (Millipore Milex filters nylon 0.2 um) and three aliquots were taken (one from each of the three vials) and analysed by LC-MS. • d) The pH of the final solution in each sample was measured with a pH-meter (WTW pH330i and a pH-electrode Sentix 41).
3. LC-MS Assay for Analytical Quantification
All filtered aliquots were analysed by LC-MS. The analysis was carried out with a Luna 5 μC18 (2) column 4.6×150 mm, using a HP1100 HPLC instrument interfaced with a Waters ZMD-2000 MS spectrometer. The concentration of the final sample as prepared above was calculated from that of a reference calibration curve obtained from serial dilutions of a 2 mM solution of the compound under investigation in DMSO (Aldrich cat. ref.: 27685-5) stock solution.
The analysis of all LC-MS data was performed with MassLynx 3.4 software. Statistical and graphic analysis of data was performed using Microsoft Excel. The concentration (uM) and solubility (ug/ml) for each compound was calculated using the peak areas from the sample and those from the calibration curve.
A) FaSSIF is a solvent which simulates the Fasted State of the Intestinal Fluid. (FaSSIF: Fasted State Simulated Intestinal Fluid).
B) FeSSIF is a solvent which simulates the Fed State of the Intestinal Fluid. (FeSSIF: Fed State Simulated Intestinal Fluid).
C) Solubility at pH 7.4 was determined in phosphate buffered saline (PBS) (Fluka cat. ref: 79383)
D) Solubility at pH 1.0 was determined in 0.1N HCl solution (Scharlau AL0744010C)
E) Solubility at pH 4.5 was determined in sodium citrate 0.5M solution. (Aldrich 25, 127-5)

For data set [2], the system named is Plasmodium falciparum. Briefly: In vitro anti-malarial activity against Plasmodium falciparum, IC50 assay / [3H]-hypoxanthine incorporation assay. To be noted: Erythrocyte, parasitized red blood cells, 48 hours. Type of data set: cell-based.
[3] abbreviates: 0.1N HCl solution, simulated gastric fluid, pH 1 (HCl), read-out: Solubility at pH 1 (HCl).
[4] abbreviates: FaSSIF (fasted state simulated intestinal fluid), fassif, read-out: Solubility in FaSSIF.
[5] abbreviates: FeSSIF (fed state simulated intestinal fluid), fessif, read-out: Solubility in FeSSIF.
[6] abbreviates: phosphate buffered saline (PBS), aqueous buffer, pH 7.4 (PBS), read-out: Solubility at pH 7.4 (PBS).
Setting [7] is: sodium citrate 0.5M solution, aqueous buffer, pH 4.5 (Na citrate), read-out: Solubility at pH 4.5 (Na citrate).

Molecules are shown by their SMILES. Values after ≈ are worked out from the molar mass of the structure shown. Where two headings read alike, the source gives them in different places.

For the compound `Cc1[nH]c(C)c(-c2ccc(-c3cc(C(F)(F)F)ccc3F)nc2)c(=O)c1Cl` [Example 56, 5-chloro-6′-[2-fluoro-5-(trifluoromethyl)phenyl]-2,6-dimethyl-3,3′-bipyridin-4(1H)-one], the solubility (as a rule, how much of the substance goes into solution per volume) at 24 h in data set [1] (setting [3]) was at least 50 µg/mL; in data set [1] (setting [4]), 1 to 5 µg/mL (≈ 2.52 to 12.6 µM); in data set [1] (setting [5]), 10 to 50 µg/mL (≈ 25.2 to 126 µM); in data set [1] (setting [6]) it was under 1 µg/mL; in data set [1] (setting [7]), under 1 µg/mL. The half-maximal inhibitory concentration (IC50) – broadly, the concentration that inhibits the measured activity by half – in data set [2] was under 0.125 µg/mL.

As for `Cc1[nH]c(C)c(-c2ccc(-c3cccc(Cl)c3)nc2)c(=O)c1Br` [Example 20, 5-Bromo-6′-(3-chlorophenyl)-2,6-dimethyl-3,3′-bipyridin-4(1H)-one], the solubility at 24 h in data set [1] (setting [3]) is at least 50 µg/mL; in data set [1] (setting [4]), under 1 µg/mL; in data set [1] (setting [6]) it was under 1 µg/mL; in data set [1] (setting [7]) it was under 1 µg/mL. The compound also returned an IC50 in data set [2] of under 0.125 µg/mL.

For the compound `Cc1[nH]c(C)c(-c2ccc(-c3ccc(C(F)(F)F)cc3F)nc2)c(=O)c1Cl` [Example 58, 5-chloro-6′-[2-fluoro-4-(trifluoromethyl)phenyl]-2,6-dimethyl-3,3′-bipyridin-4(1H)-one], the solubility at 24 h in data set [1] (setting [3]) was 10 to 50 µg/mL (≈ 25.2 to 126 µM); in data set [1] (setting [4]), under 1 µg/mL; in data set [1] (setting [5]), 1 to 5 µg/mL (≈ 2.52 to 12.6 µM); in data set [1] (setting [6]), under 1 µg/mL; in data set [1] (setting [7]) it was under 1 µg/mL. In data set [2], the IC50 was under 0.125 µg/mL.

As to `Cc1[nH]c(C)c(-c2ccc(-c3cc(C(F)(F)F)cc(C(F)(F)F)c3)nc2)c(=O)c1Br` [Example 25, 5-Bromo-2,6-dimethyl-6′-{3,5-bis[trifluoromethyl]phenyl}-3,3′-bipyridin-4(1H)-one], the solubility at 24 h in data set [1] (setting [3]) was 1 to 5 µg/mL (≈ 2.04 to 10.2 µM); in data set [1] (setting [4]), under 1 µg/mL; in data set [1] (setting [6]), under 1 µg/mL; in data set [1] (setting [7]) it was under 1 µg/mL. In data set [2], this compound returned an IC50 of under 0.125 µg/mL.

On to `Cc1[nH]c(C)c(-c2ccc(-c3ccccc3F)nc2)c(=O)c1Cl` [Example 37, 5-Chloro-6′-(2-fluorophenyl)-2,6-dimethyl-3,3′-bipyridin-4(1H)-one], for which the solubility at 24 h in data set [1] (setting [3]) is at least 50 µg/mL; in data set [1] (setting [4]) it was 10 to 50 µg/mL (≈ 30.4 to 152 µM); in data set [1] (setting [6]), 10 to 50 µg/mL (≈ 30.4 to 152 µM); in data set [1] (setting [7]), 10 to 50 µg/mL (≈ 30.4 to 152 µM). Besides, in data set [2], the IC50 is under 0.125 µg/mL.

Take `Cc1[nH]c(C)c(-c2ccc(-c3ccc(C(F)(F)F)cc3C(F)(F)F)nc2)c(=O)c1Br` [Example 24, 5-Bromo-2,6-dimethyl-6′-{2,4-bis[trifluoromethyl]phenyl}-3,3′-bipyridin-4(1H)-one]: the solubility at 24 h in data set [1] (setting [3]) was 5 to 10 µg/mL (≈ 10.2 to 20.4 µM); in data set [1] (setting [4]), under 1 µg/mL; in data set [1] (setting [6]) it was under 1 µg/mL; in data set [1] (setting [7]), under 1 µg/mL. The same compound gave an IC50 in data set [2] of under 0.125 µg/mL.

For the compound `CCCCc1ccc(-c2ccc(-c3c(C)[nH]c(C)c(Br)c3=O)cn2)cc1` [Example 26, 5-Bromo-6′-(4-n-butylphenyl)-2,6-dimethyl-3,3′-bipyridin-4(1H)-one], the solubility at 24 h is 10 to 50 µg/mL (≈ 24.3 to 122 µM) in data set [1] (setting [3]), 10 to 50 µg/mL (≈ 24.3 to 122 µM) in data set [1] (setting [4]), under 1 µg/mL in data set [1] (setting [6]) and under 1 µg/mL in data set [1] (setting [7]). In addition, the 50% inhibitory concentration (IC50) in data set [2] is under 0.125 µg/mL.

As to `Cc1[nH]c(C)c(-c2ccc(Oc3ccc(OC(F)(F)F)cc3)nc2)c(=O)c1Cl` [Example 49, 5-Chloro-2,6-dimethyl-6′-({4-[(trifluoromethyl)oxy]phenyl}oxy)-3,3′-bipyridin-4(1H)-one], the solubility at 24 h in data set [1] (setting [3]) was 5 to 10 µg/mL (≈ 12.2 to 24.3 µM); in data set [1] (setting [4]), under 1 µg/mL; in data set [1] (setting [5]), under 1 µg/mL; in data set [1] (setting [6]) it was under 1 µg/mL; in data set [1] (setting [7]), under 1 µg/mL. Besides, the half-maximal inhibitory concentration (IC50) in data set [2] is under 0.125 µg/mL.

Turning to `Cc1[nH]c(C)c(-c2ccc(-c3ccccc3Cl)nc2)c(=O)c1Br` [Example 21, 5-Bromo-6′-(2-chlorophenyl)-2,6-dimethyl-3,3′-bipyridin-4(1H)-one], the solubility at 24 h was at least 50 µg/mL in data set [1] (setting [3]), 5 to 10 µg/mL (≈ 12.8 to 25.7 µM) in data set [1] (setting [4]), 1 to 5 µg/mL (≈ 2.57 to 12.8 µM) in data set [1] (setting [6]) and 5 to 10 µg/mL (≈ 12.8 to 25.7 µM) in data set [1] (setting [7]). Also, the half-inhibitory concentration (IC50) in data set [2] was under 0.125 µg/mL.

Consider `Cc1[nH]c(C)c(-c2ccc(-c3ccc4c(c3)OCO4)nc2)c(=O)c1Br` [Example 53], for which the solubility at 24 h in data set [1] (setting [3]) is at least 50 µg/mL; in data set [1] (setting [4]), 5 to 10 µg/mL (≈ 12.5 to 25 µM); in data set [1] (setting [6]), 1 to 5 µg/mL (≈ 2.5 to 12.5 µM); in data set [1] (setting [7]), 5 to 10 µg/mL (≈ 12.5 to 25 µM). In data set [2], this compound yielded a 50% inhibitory concentration (IC50) of under 0.125 µg/mL.

`Cc1[nH]c(C)c(-c2ccc(OCc3ccc(C(F)(F)F)cc3)nc2)c(=O)c1Cl` [Example 10, 5-Chloro-2,6-dimethyl-6′-{[4-(trifluoromethyl)benzyl]oxy}-3,3′-bipyridin-4(1H)-one]: the solubility at 24 h in data set [1] (aqueous buffer, pH 4.5 (Na citrate), read-out: Solubility at pH 4.5 (Na citrate)) was under 1 µg/mL; in data set [1] (aqueous buffer, pH 7.4 (PBS), read-out: Solubility at pH 7.4 (PBS)) it was under 1 µg/mL; in data set [1] (fassif, read-out: Solubility in FaSSIF), under 1 µg/mL; in data set [1] (simulated gastric fluid, pH 1 (HCl), read-out: Solubility at pH 1 (HCl)), 5 to 10 µg/mL (≈ 12.2 to 24.5 µM). In data set [2], this compound showed an IC50 of under 0.125 µg/mL.

For `Cc1[nH]c(C)c(-c2cnc(-c3ccc(OC(F)(F)F)cc3)nc2)c(=O)c1Cl` [Example 51, 3-Chloro-2,6-dimethyl-5-{2-[4-(trifluoromethyloxy)phenyl]-5-pyrimidinyl}-4(1H)-pyridinone], the solubility at 24 h in data set [1] (setting [3]) is 1 to 5 µg/mL (≈ 2.53 to 12.6 µM); in data set [1] (setting [4]) it was 1 to 5 µg/mL (≈ 2.53 to 12.6 µM); in data set [1] (setting [5]) it was 5 to 10 µg/mL (≈ 12.6 to 25.3 µM); in data set [1] (setting [6]), under 1 µg/mL; in data set [1] (setting [7]) it was under 1 µg/mL. This compound also showed an IC50 in data set [2] of under 0.125 µg/mL.
